Experimental data from patent publication US12108719B2, “Methods for creating doubled haploid plants” (Monsanto Technology LLC, priority 2015, dated 2024).

Experiments:
[1] = test system: induced haploid germplasms (A and B); test: Co-dominant ear induction by PBZ soil drench in colchicine-treated haploid maize (Example 1); type: in vivo
Excerpt: V1-V3 seedlings of two unique F1 hybrid-derived haploid maize lines, derived from: female heterotic group (Germplasm A) or male heterotic group (Germplasm B), were subjected to a bulk colchicine-based chromosome doubling treatment by removing the seedlings from soil or growth media at the V1-V3 growth stage and aligning their stems and wrapping them together along with several wooden rods into bundle a held together by a strip of aluminum foil (approximate foil strip dimensions were 6 in×18 in). The bundled plants were submerged in plant treatment solution comprising 1250 ppm of colchicine in a centrifuge container and then the entire sample was centrifuged at 50 g for 3 min while the shoot apical meristems (SAMs) remained submerged in the plant treatment agent solution.
Following the first centrifugation, the plant treatment solution was decanted and the seedlings subjected to an addition centrifugation at 335 g for 3 min. During the second centrifugation, the rod-wrap bundle supported the seedlings and prevented the SAMs from contacting the reserve treatment agent that was not absorbed by the plant during application of the centrifugal force.
Following the second centrifugation, the plants were removed from the centrifugation container and the rod-wrap bundle and rinsed with water to remove any remaining colchicine solution, and then recovered and tended in a light, humidity, and temperature-controlled greenhouse for several days before being transplanted to a nursery greenhouse. These centrifuge-based treatment methods are described in more detail in International application number PCT/US2015/028955, which is incorporated by reference herein in its entirety, however, standard doubling treatments can also be applied to any of the haploid doubling steps referred to herein.
Following colchicine doubling treatment, 15-20 plants from each germplasm were planted in pots at two different densities; either as single plants per pot (singles), or as two plants per pot (pairs).
Next, each plant received one of two different doses of PBZ, either 50 mL (low dose) or 60 mL (high dose) of a 2.5% PBZ solution (v/v; 0.4% of active ingredient) in water. These two different doses were applied by soil drench at either the V7 or V8 growth stage, which occurred a total of 23 or 26 days after the seedlings had been subjected to chromosome doubling treatment, respectively. A control group of plants received no treatment solution but were otherwise treated exactly as the experimental groups planted as singles. When pollen shed began at the tassels, the average number of silk-producing ears (i.e. co-dominant ears) were counted for each dosage, germplasm, and treatment time and the results summarized in Table. 1.

DH0 plants = test: Ears classified by number of DH1 seed produced, first 3 co-dominant ears (Example 4); type: in vivo, maize; design: key: Class A ears produced approximately 50 seeds; Class B ears produced approximately 20-49 seeds; Class C ears produced approximately 1-20 seeds; Class 0 ears produced zero seeds; “—” represents a situation where a third ear was not formed by the plant
Excerpt: When the DH1 ears were harvested in the experiment described in Example 3, four DH0 plants selected randomly from each germplasm were subjected to further scrutiny comprising recording of the approximate number of seeds produced from the first 3 co-dominant ears for each plant. […] In Table 4, ears are assigned to one of 4 categories, depending on the approximate number of seeds they produced: Class A ears produced approximately 50 seeds, Class B ears produced approximately 20-49 seeds, Class C ears produced approximately 1-20 seeds, and Class 0 ears produced zero seeds.

CC(C)(C)[C@H](O)[C@H](Cc1ccc(Cl)cc1)n1cncn1 (relative stereo) [PBZ, (2S,3S)-1-(4-chlorophenyl)-4,4-dimethyl-2-(1,2,4-triazol-1-yl) pentan-3-ol]
number of co-dominant ears formed per plant ([1]; V7, Germplasm A, planted as pairs, low dose (50 mL 2.5% PBZ)): 3 | average EP of high dosage greater than EP of low dosage ([1]; all plants, high vs low dosage): 0.31 | high-dose EP average higher than the low-dose ([1]; only the singles): 0.55 | minimum increase of EP over control plants ([1]; singles subjected to the low dose): ≥ 1.2 EP | Ears classified by the number of DH1 seed they produced (DH0 plants; A, Plant 1, 1st ear): C (Class C ears produced approximately 1-20 seeds) | Ears classified by the number of DH1 seed they produced (DH0 plants; A, Plant 1, 2nd ear): B (Class B ears produced approximately 20-49 seeds) | Ears classified by the number of DH1 seed they produced (DH0 plants; A, Plant 1, 3rd ear): C (Class C ears produced approximately 1-20 seeds) | Ears classified by the number of DH1 seed they produced (DH0 plants; A, Plant 2, 1st ear): C (Class C ears produced approximately 1-20 seeds) | Ears classified by the number of DH1 seed they produced (DH0 plants; A, Plant 2, 2nd ear): A (Class A ears produced approximately 50 seeds) | Ears classified by the number of DH1 seed they produced (DH0 plants; A, Plant 2, 3rd ear): C (Class C ears produced approximately 1-20 seeds) | Ears classified by the number of DH1 seed they produced (DH0 plants; A, Plant 3, 1st ear): C (Class C ears produced approximately 1-20 seeds) | Ears classified by the number of DH1 seed they produced (DH0 plants; A, Plant 3, 2nd ear): C (Class C ears produced approximately 1-20 seeds) | Ears classified by the number of DH1 seed they produced (DH0 plants; A, Plant 3, 3rd ear): B (Class B ears produced approximately 20-49 seeds) | Ears classified by the number of DH1 seed they produced (DH0 plants; A, Plant 4, 1st ear): A (Class A ears produced approximately 50 seeds) | Ears classified by the number of DH1 seed they produced (DH0 plants; A, Plant 4, 2nd ear): C (Class C ears produced approximately 1-20 seeds) | Ears classified by the number of DH1 seed they produced (DH0 plants; A, Plant 4, 3rd ear): 0 (Class 0 ears produced zero seeds) | Ears classified by the number of DH1 seed they produced (DH0 plants; B, Plant 1, 1st ear): C (Class C ears produced approximately 1-20 seeds) | Ears classified by the number of DH1 seed they produced (DH0 plants; B, Plant 1, 2nd ear): A (Class A ears produced approximately 50 seeds) | Ears classified by the number of DH1 seed they produced (DH0 plants; B, Plant 1, 3rd ear): — | Ears classified by the number of DH1 seed they produced (DH0 plants; B, Plant 2, 1st ear): B (Class B ears produced approximately 20-49 seeds) | Ears classified by the number of DH1 seed they produced (DH0 plants; B, Plant 2, 2nd ear): C (Class C ears produced approximately 1-20 seeds) | Ears classified by the number of DH1 seed they produced (DH0 plants; B, Plant 2, 3rd ear): C (Class C ears produced approximately 1-20 seeds) | Ears classified by the number of DH1 seed they produced (DH0 plants; B, Plant 3, 1st ear): C (Class C ears produced approximately 1-20 seeds) | Ears classified by the number of DH1 seed they produced (DH0 plants; B, Plant 3, 2nd ear): A (Class A ears produced approximately 50 seeds) | Ears classified by the number of DH1 seed they produced (DH0 plants; B, Plant 3, 3rd ear): C (Class C ears produced approximately 1-20 seeds) | Ears classified by the number of DH1 seed they produced (DH0 plants; B, Plant 4, 1st ear): C (Class C ears produced approximately 1-20 seeds) | Ears classified by the number of DH1 seed they produced (DH0 plants; B, Plant 4, 2nd ear): A (Class A ears produced approximately 50 seeds) | Ears classified by the number of DH1 seed they produced (DH0 plants; B, Plant 4, 3rd ear): C (Class C ears produced approximately 1-20 seeds) | Ears classified by the number of DH1 seed they produced (DH0 plants; Control A, Plant 1, 1st ear): B (Class B ears produced approximately 20-49 seeds) | Ears classified by the number of DH1 seed they produced (DH0 plants; Control A, Plant 1, 2nd ear): A (Class A ears produced approximately 50 seeds) | Ears classified by the number of DH1 seed they produced (DH0 plants; Control A, Plant 1, 3rd ear): — | Ears classified by the number of DH1 seed they produced (DH0 plants; Control A, Plant 2, 1st ear): C (Class C ears produced approximately 1-20 seeds) | Ears classified by the number of DH1 seed they produced (DH0 plants; Control A, Plant 2, 2nd ear): B (Class B ears produced approximately 20-49 seeds) | Ears classified by the number of DH1 seed they produced (DH0 plants; Control A, Plant 2, 3rd ear): C (Class C ears produced approximately 1-20 seeds) | Ears classified by the number of DH1 seed they produced (DH0 plants; Control A, Plant 3, 1st ear): A (Class A ears produced approximately 50 seeds) | Ears classified by the number of DH1 seed they produced (DH0 plants; Control A, Plant 3, 2nd ear): C (Class C ears produced approximately 1-20 seeds) | Ears classified by the number of DH1 seed they produced (DH0 plants; Control A, Plant 3, 3rd ear): 0 (Class 0 ears produced zero seeds) | Ears classified by the number of DH1 seed they produced (DH0 plants; Control A, Plant 4, 1st ear): B (Class B ears produced approximately 20-49 seeds) | Ears classified by the number of DH1 seed they produced (DH0 plants; Control A, Plant 4, 2nd ear): B (Class B ears produced approximately 20-49 seeds) | Ears classified by the number of DH1 seed they produced (DH0 plants; Control A, Plant 4, 3rd ear): 0 (Class 0 ears produced zero seeds) | Ears classified by the number of DH1 seed they produced (DH0 plants; Control B, Plant 1, 1st ear): C (Class C ears produced approximately 1-20 seeds) | Ears classified by the number of DH1 seed they produced (DH0 plants; Control B, Plant 1, 2nd ear): C (Class C ears produced approximately 1-20 seeds) | Ears classified by the number of DH1 seed they produced (DH0 plants; Control B, Plant 1, 3rd ear): B (Class B ears produced approximately 20-49 seeds) | Ears classified by the number of DH1 seed they produced (DH0 plants; Control B, Plant 2, 1st ear): A (Class A ears produced approximately 50 seeds) | Ears classified by the number of DH1 seed they produced (DH0 plants; Control B, Plant 2, 2nd ear): A (Class A ears produced approximately 50 seeds) | Ears classified by the number of DH1 seed they produced (DH0 plants; Control B, Plant 2, 3rd ear): 0 (Class 0 ears produced zero seeds) | Ears classified by the number of DH1 seed they produced (DH0 plants; Control B, Plant 3, 1st ear): A (Class A ears produced approximately 50 seeds) | Ears classified by the number of DH1 seed they produced (DH0 plants; Control B, Plant 3, 2nd ear): 0 (Class 0 ears produced zero seeds) | Ears classified by the number of DH1 seed they produced (DH0 plants; Control B, Plant 3, 3rd ear): C (Class C ears produced approximately 1-20 seeds) | Ears classified by the number of DH1 seed they produced (DH0 plants; Control B, Plant 4, 1st ear): B (Class B ears produced approximately 20-49 seeds) | Ears classified by the number of DH1 seed they produced (DH0 plants; Control B, Plant 4, 2nd ear): B (Class B ears produced approximately 20-49 seeds) | Ears classified by the number of DH1 seed they produced (DH0 plants; Control B, Plant 4, 3rd ear): C (Class C ears produced approximately 1-20 seeds)
